Experimental data: patent US20130261178A1, “PHENOXYPROPANOL DERIVATIVES AND THEIR USE IN TREATING CARDIAC AND CARDIOVASCULAR DISEASES” (priority 2010, published 2013)

Key:
[1] = molecular target: T1, human beta3-adrenoceptor (Homo sapiens, UniProt P13945); assay: 3H-CGP12177 whole-cell binding, CHO cells expressing human beta3-adrenoceptor; conditions: 3H-CGP 12177 whole cell binding, mean ± s.e.mean; for Kd: log KD, read-out: Beta 3 Log KD (converted)
T1 construct: expressed in transfected cells; host or cells: CHO cells
T1 sequence (P13945 whole entry): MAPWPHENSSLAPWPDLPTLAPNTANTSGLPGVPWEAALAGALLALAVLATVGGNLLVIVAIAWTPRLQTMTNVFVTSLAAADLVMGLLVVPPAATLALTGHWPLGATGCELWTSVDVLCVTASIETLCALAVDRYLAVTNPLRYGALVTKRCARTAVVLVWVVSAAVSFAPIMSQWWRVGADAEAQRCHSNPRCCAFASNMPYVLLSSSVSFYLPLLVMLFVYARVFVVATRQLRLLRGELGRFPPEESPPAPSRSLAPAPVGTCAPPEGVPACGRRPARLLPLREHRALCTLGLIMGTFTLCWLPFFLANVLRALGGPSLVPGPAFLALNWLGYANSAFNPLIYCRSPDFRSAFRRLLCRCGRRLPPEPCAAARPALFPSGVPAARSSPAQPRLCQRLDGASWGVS

[2] = molecular target: beta1-adrenoceptor (Homo sapiens, UniProt P08588); assay: 3H-CGP12177 whole-cell binding, CHO cells expressing human beta1-adrenoceptor; parameters: expressed in transfected cells; host or cells: CHO cells; conditions: 3H-CGP 12177 whole cell binding, mean ± s.e.mean; for Kd: log KD, read-out: Beta 1 Log KD (converted)
beta1-adrenoceptor, sequence (P08588 whole entry): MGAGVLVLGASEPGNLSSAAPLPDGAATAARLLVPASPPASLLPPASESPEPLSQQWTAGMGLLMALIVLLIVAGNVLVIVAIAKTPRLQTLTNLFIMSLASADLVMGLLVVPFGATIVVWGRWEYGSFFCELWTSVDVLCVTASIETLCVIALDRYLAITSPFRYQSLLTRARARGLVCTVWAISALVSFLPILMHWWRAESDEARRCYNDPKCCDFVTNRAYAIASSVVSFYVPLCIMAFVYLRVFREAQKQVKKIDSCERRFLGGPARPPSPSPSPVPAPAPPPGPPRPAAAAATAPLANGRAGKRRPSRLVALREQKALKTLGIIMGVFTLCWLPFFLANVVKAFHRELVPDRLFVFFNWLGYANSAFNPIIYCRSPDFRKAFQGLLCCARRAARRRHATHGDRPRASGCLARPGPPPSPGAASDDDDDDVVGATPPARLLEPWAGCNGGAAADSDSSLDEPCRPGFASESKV
Source text: (§1) The selectivity of a ligand is given by the ratio of beta-1 to beta-2 KD.

[3] = molecular target: T2, human beta2-adrenoceptor (Homo sapiens, UniProt P07550); assay: 3H-CGP12177 whole-cell binding, CHO cells expressing human beta2-adrenoceptor; conditions: 3H-CGP 12177 whole cell binding, mean ± s.e.mean; for Kd: log KD, read-out: Beta 2 Log KD (converted)
T2 construct: expressed in transfected cells; host or cells: CHO cells
T2 sequence (P07550 whole entry): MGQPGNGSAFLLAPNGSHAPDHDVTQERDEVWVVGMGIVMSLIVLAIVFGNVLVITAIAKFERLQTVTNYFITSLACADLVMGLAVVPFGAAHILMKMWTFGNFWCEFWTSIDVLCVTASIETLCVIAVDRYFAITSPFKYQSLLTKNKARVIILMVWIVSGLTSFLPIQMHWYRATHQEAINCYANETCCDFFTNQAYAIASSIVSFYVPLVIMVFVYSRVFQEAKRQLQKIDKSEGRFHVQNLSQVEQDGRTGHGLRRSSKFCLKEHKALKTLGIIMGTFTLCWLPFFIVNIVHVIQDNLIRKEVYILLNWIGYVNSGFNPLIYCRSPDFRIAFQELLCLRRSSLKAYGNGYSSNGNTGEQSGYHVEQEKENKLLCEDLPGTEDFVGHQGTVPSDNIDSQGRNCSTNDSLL
Source text: as §1

Compound	Kd [1] [nM]	Kd [2] [nM]	Kd [3] [nM]	Beta 1 Log KD [2]	melting point [°C]	Beta 2 Log KD [3]	Beta 3 Log KD [1]
O=C(NCCNCC(O)COc1ccc(OCCOCC2CC2)cc1)Nc1ccc(OCc2ccccc2)cc1 (stereo not drawn) [45a]	1780	70.8	–	–	–	–	–
O=C(NCCNCC(O)COc1ccc(OCCOCC2CC2)cc1)Nc1cccc(Cl)c1 (stereo not drawn) [46e, 1-(2-(3-(4-(2-(Cyclopropylmethoxy)ethoxy)phenoxy)-2-hydroxypropylamino)ethyl)-3-(3-chlorophenyl)urea hydroformate]	8510	29.5	5750	–	–	–	–
CCOCCOc1ccc(OCC(O)CNCCNC(=O)Nc2cccc(Cl)c2)cc1 (stereo not drawn) [46f, 1-(2-(3-(4-(2-Ethoxyethoxy)phenoxy)-2-hydroxypropylamino)ethyl)-3-(3-chlorophenyl)urea hydroformate]	7240	31.6	6310	–	–	–	–
CCOCCOc1ccc(OCC(O)CNCCNC(=O)Cc2ccccc2O)cc1 (stereo not drawn) [46g, N-(2-(3-(4-(2-ethoxyethoxy)phenoxy)-2-hydroxypropylamino)ethyl)-2-(2-hydroxyphenyl)acetamide]	10000	77.6	537	–	–	–	–
CCOCCOc1ccc(OCC(O)CNCCNC(=O)Cc2cccc(O)c2)cc1 (stereo not drawn) [46h, N-(2-(3-(4-(2-ethoxyethoxy)phenoxy)-2-hydroxypropylamino)ethyl)-2-(3-hydroxyphenyl)acetamide]	9330	44.7	257	–	–	–	–
O=C(Cc1ccc(O)cc1)NCCNCC(O)COc1ccc(OCCOCC2CC2)cc1 (stereo not drawn) [46i, N-(2-(3-(4-(2-(cyclopropylmethoxy)ethoxy)phenoxy)-2 hydroxypropylamino)ethyl)-2-(4-hydroxyphenyl)acetamide]	3890	17	933	–	–	–	–
O=C(NCCNCC(O)COc1ccc(OCCOC2CCCC2)cc1)Nc1ccccc1O (stereo not drawn) [47t, 1-(2-(3-(4-(2-(Cyclopentyloxy)ethoxy)phenoxy)-2-hydroxypropylamino)ethyl)-3-(2-hydroxyphenyl)urea]	3980	–	–	−6.99 ± 0.08	–	–	–
O=C(Cc1ccc(F)cc1)NCCNCC(O)COc1ccc(OCCOC2CCCC2)cc1 (stereo not drawn) [62i]	–	7.76	178	–	114.5 to 115.5	–	–
O=C(Cc1ccccc1Cl)NCCNCC(O)COc1ccc(OCCOC2CCCC2)cc1 (stereo not drawn) [62j]	–	3.47	57.5	–	113.5 to 114.5	–	–
O=C(Cc1cccc(Cl)c1)NCCNCC(O)COc1ccc(OCCOC2CCCC2)cc1 (stereo not drawn) [62k]	–	6.92	135	–	117 to 118	–	–
O=C(Cc1ccc(Cl)cc1)NCCNCC(O)COc1ccc(OCCOC2CCCC2)cc1 (stereo not drawn) [62l]	–	7.59	162	–	107 to 109	–	–
O=C(Cc1ccccc1C(F)(F)F)NCCNCC(O)COc1ccc(OCCOC2CCCC2)cc1 (stereo not drawn) [62m]	–	9.55	126	–	120.5 to 121.5	–	–
O=C(Cc1cccc(C(F)(F)F)c1)NCCNCC(O)COc1ccc(OCCOC2CCCC2)cc1 (stereo not drawn) [62n]	–	13.2	200	–	111.5 to 112.5	–	–
O=C(Cc1ccc(C(F)(F)F)cc1)NCCNCC(O)COc1ccc(OCCOC2CCCC2)cc1 (stereo not drawn) [62o]	–	9.12	214	–	132 to 133	–	–
Cc1ccccc1CC(=O)NCCNCC(O)COc1ccc(OCCOC2CCCC2)cc1 (stereo not drawn) [62p]	–	9.55	72.4	–	119 to 120.5	–	–
Cc1ccc(CC(=O)NCCNCC(O)COc2ccc(OCCOC3CCCC3)cc2)cc1 (stereo not drawn) [62r]	–	50.1	776	–	82 to 85	–	–
COc1cccc(CC(=O)NCCNCC(O)COc2ccc(OCCOC3CCCC3)cc2)c1 (stereo not drawn) [62s]	–	10.7	53.7	–	110 to 113	–	–
O=C(Cc1ccc(O)cc1)NCCNCC(O)COc1ccc(OCCOC2CCCC2)cc1 (stereo not drawn) [62v]	–	5.37	251	–	127.5 to 130	–	–
N#Cc1cc(OCCOCC2CC2)ccc1OCC(O)CNCCNC(=O)Nc1ccc(O)cc1 (stereo not drawn) [LK204-545]	–	–	–	–	–	−5.20 ± 0.03	−4.62 ± 0.09
